The source of these data is PMC8305571 (2021).

SMILES strings stand for the structures.

In assay [1] the test system is ionK (DNA, G4) GGGTTAGGGTTAGGGTAGGG
The assay can be described thus: CD melting, 294 nm. The following applies: 50 mM NaCl; 25 mM mBR buffer, pH 7.0; ligand concentration not given; indicative value.

Assay [2] relates to VEGF (DNA, G4) GGGGCGGGCCGGGGGCGGG
In words: CD melting, 264 nm. To be noted: mBR buffer, pH 7.0, indicative values.

Assay [3] relates to STAT (DNA, G4) GGGCGGGCGGGCGGG
The assay can be described thus: CD melting, 264 nm. To be noted: mBR buffer, pH 7.0, indicative values.

Assay [4] relates to Scle (DNA, G4) TGGGGGGGTGGGTGGGT
The assay can be described thus: CD melting, 264 nm. To be noted: 50 mM KCl; mBR buffer, pH 7.0; derived from two Tm (81.5, >100); indicative values.

Assay [5] relates to HTR (DNA, G4) GGGTTAGGGTTAGGGTTAGGG
In words: temperature gradient gel electrophoresis (TGGE). To be noted: 2.5 mM KCl; 25 mM mBR buffer, pH 7.0; 260 µM RhG in gel; antiparallel form; parallel form >62 ± 2 °C with RhG.

For assay [6], the system named is TBA (DNA, G4) GGTTGGTGTGGTTGG
The assay can be described thus: CD melting, 294 nm. The following applies: 50 mM NaCl; 25 mM mBR buffer, pH 7.0; ligand concentration not given; indicative value.

The test system of assay [7] is Scle (DNA, G4) TGGGGGGGTGGGTGGGT
The assay can be described thus: induced CD and UV-Vis titration. The following applies: 50 mM KCl; mRB buffer, pH 7.0; 130 µM RhG, DNA up to 27 µM.

Assay [8] relates to Hema (DNA, G4) GGGGTCGGGCGGGCCGGGTG
In words: CD melting, 264 nm. To be noted: 50 mM NaCl; 25 mM mBR buffer, pH 7.0; ligand concentration not given; indicative value.

Assay [9] relates to HTR (DNA, G4) GGGTTAGGGTTAGGGTTAGGG
The assay can be described thus: CD melting, 294 nm. To be noted: 50 mM KCl; mBR buffer, pH 7.0; derived from two Tm (63.5, 64.0); indicative values.

In assay [10] the test system is TBA (DNA, G4) GGTTGGTGTGGTTGG
The assay can be described thus: CD melting, 294 nm. The following applies: 50 mM KCl; mBR buffer, pH 7.0; derived from two Tm (46.5, 48.5); indicative values.

The subject of assay [11] is TFO1 (DNA, triplex) AAAAAAAACCCCTTTTTTTTCCCCTTTTTTTT
In words: CD melting, 282 nm. The following applies: no added salt; mBR buffer, pH 7.0; derived from two Tm (20.4, 17.7); indicative values.

For assay [12], the system named is Scle (DNA, G4) TGGGGGGGTGGGTGGGT
In words: CD melting, 264 nm. To be noted: 50 mM NaCl; 25 mM mBR buffer, pH 7.0; ligand concentration not given; indicative value.

Assay [13] has as its system ionK (DNA, G4) GGGTTAGGGTTAGGGTAGGG
In words: CD melting, 294 nm. To be noted: 50 mM KCl; mBR buffer, pH 7.0; derived from two Tm (59.1, 58.0); indicative values.

Assay [14] relates to G3C (DNA, G4) GGGCGGGCGGGCGGGC
The assay can be described thus: CD titration, PAGE. To be noted: 50 mM NaCl or KCl; mBR buffer, pH 7.0; up to 260 µM RhG (CD), 130 µM (PAGE).

Assay [15] concerns HTR (DNA, G4) GGGTTAGGGTTAGGGTTAGGG
The assay can be described thus: CD melting, 294 nm. The following applies: 50 mM NaCl; 25 mM mBR buffer, pH 7.0; ligand concentration not given; indicative value.

The subject of assay [16] is Hema (DNA, G4) GGGGTCGGGCGGGCCGGGTG
The assay can be described thus: CD melting, 264 nm. To be noted: 50 mM KCl; mBR buffer, pH 7.0; derived from two Tm (72.0, 86.0); indicative values.

Assay [17] has as its system G3A (DNA, G4) GGGAGGGAGGGAGGGA
The assay can be described thus: CD titration, PAGE. The following applies: 50 mM NaCl or KCl; mBR buffer, pH 7.0; up to 260 µM RhG (CD), 130 µM (PAGE).

In the case of `CCN=c1cc2oc3cc(NCC)c(C)cc3c(-c3ccccc3C(=O)OCC)c-2cc1C`, the Tm in assay [1] is 48.5 (no ligand 46.2) °C; in assay [5], 50.6 (no ligand 46.5) °C; in [6], 26.8 (no ligand 20.0) °C; in [8] it was 54.3 (no ligand ND) °C; in assay [12], 77.0 (no ligand 62.0) °C; in assay [15], 52.0 (no ligand 52.0) °C. The “ΔTm (RhG minus no ligand)” value in [2] (50 mM KCl, derived from two Tm (85.6, 87.9)) was 2.3 °C; in assay [2] (50 mM NaCl, derived from two Tm (47.5, 82.0)), 34.5 °C; in assay [3] (50 mM KCl, derived from two Tm (92.8, >100)), greater than 7.2 °C; in assay [3] (50 mM NaCl, derived from two Tm (54.5, 76.5)), 22.0 °C; in assay [13], -1.1 °C. Moreover, the “ΔTm (Tm shift)” value was greater than 18.5 °C in [4]; 0.5 °C in assay [9]; 2.0 °C in assay [10]; -2.7 °C in assay [11]; 14.0 °C in assay [16]. Moreover, the binding result in assay [7], in assay [14] and in assay [17] was “yes” each time.
